Results from PMC10905675, “INX-315, a Selective CDK2 Inhibitor, Induces Cell Cycle Arrest and Senescence in Solid Tumors” (Cancer Discovery, 2023).

Columns and labels:
Assay in all cases: SelectScreen ZLYTE
Type in all cases: biochemical
Details in all cases: INX-0315 at 100nM
AKT3 (PKB gamma) = biological target: T1, AKT3 (PKB gamma) (Homo sapiens, UniProt Q9Y243)
T1 construct: purchased Thermo Fisher Scientific SelectScreen (plus Nanosyn / Reaction Biology for CDK/cyclin lines)
How it was run: (§1)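 Both platform types ran at predefined settings. Inhibitor was applied first at 100 nmol/L (1% DMSO), later in ten-point titrations spanning 1 µmol/L to 0.0495 nmol/L.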

[1] = biological target: T2, CSNK1E (CK1 epsilon) R178C (Homo sapiens, UniProt P49674, R178C)
T2 construct: purchased Thermo Fisher Scientific SelectScreen (plus Nanosyn / Reaction Biology for CDK/cyclin lines)
How it was run: as §1

PLK1 = biological target: T3, PLK1 (Homo sapiens, UniProt P53350)
T3 construct: purchased Thermo Fisher Scientific SelectScreen (plus Nanosyn / Reaction Biology for CDK/cyclin lines)
How it was run: as §1

MST1R (RON) = biological target: T4, MST1R (RON) (Homo sapiens, UniProt Q04912)
T4 construct: purchased Thermo Fisher Scientific SelectScreen (plus Nanosyn / Reaction Biology for CDK/cyclin lines)
How it was run: as §1

MARK3 = biological target: T5, MARK3 (Homo sapiens, UniProt P27448)
T5 construct: purchased Thermo Fisher Scientific SelectScreen (plus Nanosyn / Reaction Biology for CDK/cyclin lines)
T5 sequence (P27448 whole entry): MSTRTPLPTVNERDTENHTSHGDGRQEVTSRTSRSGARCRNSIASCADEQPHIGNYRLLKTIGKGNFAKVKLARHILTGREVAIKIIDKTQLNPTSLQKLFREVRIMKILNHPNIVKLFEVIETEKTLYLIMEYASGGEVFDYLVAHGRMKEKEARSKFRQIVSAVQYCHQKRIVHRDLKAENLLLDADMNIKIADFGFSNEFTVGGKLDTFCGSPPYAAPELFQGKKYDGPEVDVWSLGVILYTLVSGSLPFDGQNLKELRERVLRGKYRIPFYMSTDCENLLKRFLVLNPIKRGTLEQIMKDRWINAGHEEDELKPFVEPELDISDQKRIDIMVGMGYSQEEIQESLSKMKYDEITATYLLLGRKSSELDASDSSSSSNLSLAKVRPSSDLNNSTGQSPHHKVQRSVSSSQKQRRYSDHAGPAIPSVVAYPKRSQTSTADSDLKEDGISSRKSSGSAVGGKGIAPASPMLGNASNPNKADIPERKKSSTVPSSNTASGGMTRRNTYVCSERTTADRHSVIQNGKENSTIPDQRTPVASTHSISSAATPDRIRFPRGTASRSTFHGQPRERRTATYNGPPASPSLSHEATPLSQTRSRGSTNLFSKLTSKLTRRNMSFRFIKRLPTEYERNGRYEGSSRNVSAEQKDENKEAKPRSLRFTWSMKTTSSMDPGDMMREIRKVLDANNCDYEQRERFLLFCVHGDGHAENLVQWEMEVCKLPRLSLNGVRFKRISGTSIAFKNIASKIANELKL
How it was run: as §1

FGFR3 V555M = biological target: T6, FGFR3 V555M (Homo sapiens, UniProt P22607, V555M)
T6 construct: purchased Thermo Fisher Scientific SelectScreen (plus Nanosyn / Reaction Biology for CDK/cyclin lines)
T6 sequence (P22607 23-806 V555M): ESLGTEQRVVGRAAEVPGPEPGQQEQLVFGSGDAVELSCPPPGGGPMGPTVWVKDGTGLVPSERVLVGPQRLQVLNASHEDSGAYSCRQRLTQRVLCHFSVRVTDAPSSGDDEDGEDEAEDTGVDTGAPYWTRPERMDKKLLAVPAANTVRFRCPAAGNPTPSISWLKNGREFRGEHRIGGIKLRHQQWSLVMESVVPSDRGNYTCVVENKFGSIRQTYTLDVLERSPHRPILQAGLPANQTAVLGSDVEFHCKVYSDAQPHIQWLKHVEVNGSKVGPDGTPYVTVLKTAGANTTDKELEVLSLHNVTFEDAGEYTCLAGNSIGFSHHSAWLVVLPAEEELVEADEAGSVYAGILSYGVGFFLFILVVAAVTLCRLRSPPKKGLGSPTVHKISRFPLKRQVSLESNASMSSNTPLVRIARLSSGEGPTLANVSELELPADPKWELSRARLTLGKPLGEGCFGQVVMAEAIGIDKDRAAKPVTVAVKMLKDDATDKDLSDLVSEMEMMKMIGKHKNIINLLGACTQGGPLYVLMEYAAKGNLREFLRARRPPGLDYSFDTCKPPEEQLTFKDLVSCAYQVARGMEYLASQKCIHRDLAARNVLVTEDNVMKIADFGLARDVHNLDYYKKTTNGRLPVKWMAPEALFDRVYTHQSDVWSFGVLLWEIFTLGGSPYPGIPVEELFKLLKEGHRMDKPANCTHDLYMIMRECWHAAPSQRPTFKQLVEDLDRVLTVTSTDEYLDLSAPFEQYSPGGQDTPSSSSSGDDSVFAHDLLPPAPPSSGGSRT
How it was run: as §1

SRPK2 = biological target: T7, SRPK2 (Homo sapiens, UniProt P78362)
T7 construct: purchased Thermo Fisher Scientific SelectScreen (plus Nanosyn / Reaction Biology for CDK/cyclin lines)
How it was run: as §1

LCK = biological target: T8, LCK (Homo sapiens, UniProt P06239)
T8 construct: purchased Thermo Fisher Scientific SelectScreen (plus Nanosyn / Reaction Biology for CDK/cyclin lines)
T8 sequence (P06239 whole entry): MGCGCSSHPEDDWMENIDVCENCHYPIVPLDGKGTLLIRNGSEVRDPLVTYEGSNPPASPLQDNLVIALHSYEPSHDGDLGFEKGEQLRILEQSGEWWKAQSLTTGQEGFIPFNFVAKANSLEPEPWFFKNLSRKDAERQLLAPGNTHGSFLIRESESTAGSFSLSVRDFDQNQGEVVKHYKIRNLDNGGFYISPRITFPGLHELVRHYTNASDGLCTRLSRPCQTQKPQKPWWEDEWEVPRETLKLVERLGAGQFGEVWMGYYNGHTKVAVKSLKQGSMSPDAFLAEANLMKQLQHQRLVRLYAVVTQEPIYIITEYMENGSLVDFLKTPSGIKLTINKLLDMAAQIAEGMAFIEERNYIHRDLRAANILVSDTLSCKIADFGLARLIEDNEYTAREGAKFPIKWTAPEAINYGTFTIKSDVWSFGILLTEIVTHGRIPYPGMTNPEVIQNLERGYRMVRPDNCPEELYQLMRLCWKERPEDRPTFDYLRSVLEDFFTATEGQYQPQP
How it was run: as §1

MAPK8 (JNK1) = biological target: T9, MAPK8 (JNK1) (Homo sapiens, UniProt P45983)
T9 construct: purchased Thermo Fisher Scientific SelectScreen (plus Nanosyn / Reaction Biology for CDK/cyclin lines)
How it was run: as §1

BRSK1 (SAD1) = biological target: T10, BRSK1 (SAD1) (Homo sapiens, UniProt Q8TDC3)
T10 construct: purchased Thermo Fisher Scientific SelectScreen (plus Nanosyn / Reaction Biology for CDK/cyclin lines)
How it was run: as §1

EPHB1 = biological target: T11, EPHB1 (Homo sapiens, UniProt P54762)
T11 construct: purchased Thermo Fisher Scientific SelectScreen (plus Nanosyn / Reaction Biology for CDK/cyclin lines)
How it was run: as §1

MELK = biological target: T12, MELK (Homo sapiens, UniProt Q14680)
T12 construct: purchased Thermo Fisher Scientific SelectScreen (plus Nanosyn / Reaction Biology for CDK/cyclin lines)
How it was run: as §1

NEK9 = biological target: T13, NEK9 (Homo sapiens, UniProt Q8TD19)
T13 construct: purchased Thermo Fisher Scientific SelectScreen (plus Nanosyn / Reaction Biology for CDK/cyclin lines)
How it was run: as §1

CLK2 = biological target: T14, CLK2 (Homo sapiens, UniProt P49760)
T14 construct: purchased Thermo Fisher Scientific SelectScreen (plus Nanosyn / Reaction Biology for CDK/cyclin lines)
How it was run: as §1

TEK (TIE2) Y897S = biological target: T15, TEK (TIE2) Y897S (Homo sapiens, UniProt Q02763, Y897S)
T15 construct: purchased Thermo Fisher Scientific SelectScreen (plus Nanosyn / Reaction Biology for CDK/cyclin lines)
How it was run: as §1

STK24 (MST3) = biological target: T16, STK24 (MST3) (Homo sapiens, UniProt Q9Y6E0)
T16 construct: purchased Thermo Fisher Scientific SelectScreen (plus Nanosyn / Reaction Biology for CDK/cyclin lines)
How it was run: as §1

ABL1 F317I = biological target: T17, ABL1 F317I (Homo sapiens, UniProt P00519, F317I)
T17 construct: purchased Thermo Fisher Scientific SelectScreen (plus Nanosyn / Reaction Biology for CDK/cyclin lines)
How it was run: as §1

ERBB2 (HER2) = biological target: T18, ERBB2 (HER2) (Homo sapiens, UniProt P04626)
T18 construct: purchased Thermo Fisher Scientific SelectScreen (plus Nanosyn / Reaction Biology for CDK/cyclin lines)
How it was run: as §1

PRKCN (PKD3) = biological target: T19, PRKCN (PKD3) (Homo sapiens, UniProt O94806)
T19 construct: purchased Thermo Fisher Scientific SelectScreen (plus Nanosyn / Reaction Biology for CDK/cyclin lines)
How it was run: as §1

MAPK12 (p38 gamma) = biological target: T20, MAPK12 (p38 gamma) (Homo sapiens, UniProt P53778)
T20 construct: purchased Thermo Fisher Scientific SelectScreen (plus Nanosyn / Reaction Biology for CDK/cyclin lines)
T20 sequence (P53778 whole entry): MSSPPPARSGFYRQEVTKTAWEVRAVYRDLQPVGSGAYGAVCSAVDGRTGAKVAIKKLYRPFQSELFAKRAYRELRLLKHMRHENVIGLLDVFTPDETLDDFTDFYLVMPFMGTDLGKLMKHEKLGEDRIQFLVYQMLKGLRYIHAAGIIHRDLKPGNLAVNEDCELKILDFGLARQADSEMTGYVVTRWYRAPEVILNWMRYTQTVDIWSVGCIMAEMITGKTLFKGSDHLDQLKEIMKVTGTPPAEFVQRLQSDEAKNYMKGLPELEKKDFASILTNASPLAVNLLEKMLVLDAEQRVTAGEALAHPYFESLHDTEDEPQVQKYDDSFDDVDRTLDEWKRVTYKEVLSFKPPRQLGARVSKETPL
How it was run: as §1

FES (FPS) = biological target: T21, FES (FPS) (Homo sapiens, UniProt P07332)
T21 construct: purchased Thermo Fisher Scientific SelectScreen (plus Nanosyn / Reaction Biology for CDK/cyclin lines)
How it was run: as §1

PRKCZ (PKC zeta) = biological target: T22, PRKCZ (PKC zeta) (Homo sapiens, UniProt Q05513)
T22 construct: purchased Thermo Fisher Scientific SelectScreen (plus Nanosyn / Reaction Biology for CDK/cyclin lines)
T22 sequence (Q05513 whole entry): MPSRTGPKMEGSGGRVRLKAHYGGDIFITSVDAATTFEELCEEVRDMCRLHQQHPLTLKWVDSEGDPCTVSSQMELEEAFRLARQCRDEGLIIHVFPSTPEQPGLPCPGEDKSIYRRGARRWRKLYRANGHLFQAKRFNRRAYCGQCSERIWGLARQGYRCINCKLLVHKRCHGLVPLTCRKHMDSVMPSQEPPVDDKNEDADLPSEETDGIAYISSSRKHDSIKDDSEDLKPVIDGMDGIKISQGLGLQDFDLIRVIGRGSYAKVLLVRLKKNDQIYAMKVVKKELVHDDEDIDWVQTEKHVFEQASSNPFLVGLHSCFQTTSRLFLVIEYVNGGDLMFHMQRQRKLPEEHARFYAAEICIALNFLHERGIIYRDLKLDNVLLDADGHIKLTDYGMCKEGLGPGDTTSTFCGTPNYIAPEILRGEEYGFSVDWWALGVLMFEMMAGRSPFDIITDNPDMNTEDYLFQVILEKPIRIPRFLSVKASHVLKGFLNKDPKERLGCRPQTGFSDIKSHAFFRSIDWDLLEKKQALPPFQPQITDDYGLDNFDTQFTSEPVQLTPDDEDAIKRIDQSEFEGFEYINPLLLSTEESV
How it was run: as §1

KIT = biological target: T23, KIT (Homo sapiens, UniProt P10721)
T23 construct: purchased Thermo Fisher Scientific SelectScreen (plus Nanosyn / Reaction Biology for CDK/cyclin lines)
How it was run: as §1

AMPK (A2/B1/G3) = biological target: T24, AMPK (A2/B1/G3) (Homo sapiens, UniProt P54646)
T24 construct: purchased Thermo Fisher Scientific SelectScreen (plus Nanosyn / Reaction Biology for CDK/cyclin lines)
How it was run: as §1

CHEK1 (CHK1) = biological target: T25, CHEK1 (CHK1) (Homo sapiens, UniProt O14757)
T25 construct: purchased Thermo Fisher Scientific SelectScreen (plus Nanosyn / Reaction Biology for CDK/cyclin lines)
How it was run: as §1

CSNK1A1 (CK1 alpha 1) = biological target: T26, CSNK1A1 (CK1 alpha 1) (Homo sapiens, UniProt P48729)
T26 construct: purchased Thermo Fisher Scientific SelectScreen (plus Nanosyn / Reaction Biology for CDK/cyclin lines)
T26 sequence (P48729 whole entry): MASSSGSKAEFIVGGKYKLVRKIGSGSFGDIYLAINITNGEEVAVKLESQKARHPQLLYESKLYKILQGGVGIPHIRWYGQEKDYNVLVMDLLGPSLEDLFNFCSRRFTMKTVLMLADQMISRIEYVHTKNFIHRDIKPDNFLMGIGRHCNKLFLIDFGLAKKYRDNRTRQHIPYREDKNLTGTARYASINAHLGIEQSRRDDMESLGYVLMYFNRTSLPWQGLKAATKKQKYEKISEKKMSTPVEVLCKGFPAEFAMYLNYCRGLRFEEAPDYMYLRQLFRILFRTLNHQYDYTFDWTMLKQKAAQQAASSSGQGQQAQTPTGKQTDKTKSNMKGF
How it was run: as §1

FYN = biological target: T27, FYN (Homo sapiens, UniProt P06241)
T27 construct: purchased Thermo Fisher Scientific SelectScreen (plus Nanosyn / Reaction Biology for CDK/cyclin lines)
How it was run: as §1

HIPK3 (YAK1) = biological target: T28, HIPK3 (YAK1) (Homo sapiens, UniProt Q9H422)
T28 construct: purchased Thermo Fisher Scientific SelectScreen (plus Nanosyn / Reaction Biology for CDK/cyclin lines)
How it was run: as §1

CLK1 = biological target: T29, CLK1 (Homo sapiens, UniProt P49759)
T29 construct: purchased Thermo Fisher Scientific SelectScreen (plus Nanosyn / Reaction Biology for CDK/cyclin lines)
T29 sequence (P49759 whole entry): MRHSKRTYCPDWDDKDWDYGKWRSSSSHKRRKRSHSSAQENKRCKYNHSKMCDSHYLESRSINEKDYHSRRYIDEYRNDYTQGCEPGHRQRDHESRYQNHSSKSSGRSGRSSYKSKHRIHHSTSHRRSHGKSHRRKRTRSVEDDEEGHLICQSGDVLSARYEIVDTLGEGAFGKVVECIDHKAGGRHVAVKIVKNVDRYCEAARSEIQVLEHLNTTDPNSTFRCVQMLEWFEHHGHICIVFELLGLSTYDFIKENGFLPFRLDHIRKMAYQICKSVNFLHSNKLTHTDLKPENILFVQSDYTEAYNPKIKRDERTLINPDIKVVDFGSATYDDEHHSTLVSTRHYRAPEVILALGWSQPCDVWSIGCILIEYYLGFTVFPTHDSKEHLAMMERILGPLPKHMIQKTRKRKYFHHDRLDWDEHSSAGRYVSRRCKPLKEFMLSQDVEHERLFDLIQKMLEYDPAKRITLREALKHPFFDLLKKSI
How it was run: as §1

BMX = biological target: T30, BMX (Homo sapiens, UniProt P51813)
T30 construct: purchased Thermo Fisher Scientific SelectScreen (plus Nanosyn / Reaction Biology for CDK/cyclin lines)
T30 sequence (P51813 whole entry): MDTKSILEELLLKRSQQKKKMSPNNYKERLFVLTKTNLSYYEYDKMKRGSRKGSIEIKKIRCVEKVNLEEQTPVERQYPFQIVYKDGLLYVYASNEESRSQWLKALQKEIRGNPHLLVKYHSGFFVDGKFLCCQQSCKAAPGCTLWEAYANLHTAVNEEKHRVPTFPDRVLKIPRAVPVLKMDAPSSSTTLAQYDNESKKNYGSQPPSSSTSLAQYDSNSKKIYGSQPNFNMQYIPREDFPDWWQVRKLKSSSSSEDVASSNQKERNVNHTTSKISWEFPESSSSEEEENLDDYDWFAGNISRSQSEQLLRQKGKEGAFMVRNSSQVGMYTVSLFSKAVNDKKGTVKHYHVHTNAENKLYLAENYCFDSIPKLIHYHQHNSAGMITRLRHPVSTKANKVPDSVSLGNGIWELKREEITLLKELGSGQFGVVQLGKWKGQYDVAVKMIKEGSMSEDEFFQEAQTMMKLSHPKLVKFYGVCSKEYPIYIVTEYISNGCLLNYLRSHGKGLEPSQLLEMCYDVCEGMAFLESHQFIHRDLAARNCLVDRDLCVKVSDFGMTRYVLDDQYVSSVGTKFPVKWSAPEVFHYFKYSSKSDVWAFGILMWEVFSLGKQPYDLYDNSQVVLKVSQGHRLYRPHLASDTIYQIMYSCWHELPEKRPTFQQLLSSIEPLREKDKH
How it was run: as §1

EGFR (ErbB1) T790M = biological target: T31, EGFR (ErbB1) T790M (Homo sapiens, UniProt P00533, T790M)
T31 construct: purchased Thermo Fisher Scientific SelectScreen (plus Nanosyn / Reaction Biology for CDK/cyclin lines)
How it was run: as §1

ZAP70 = biological target: T32, ZAP70 (Homo sapiens, UniProt P43403)
T32 construct: purchased Thermo Fisher Scientific SelectScreen (plus Nanosyn / Reaction Biology for CDK/cyclin lines)
How it was run: as §1

NEK4 = biological target: T33, NEK4 (Homo sapiens, UniProt P51957)
T33 construct: purchased Thermo Fisher Scientific SelectScreen (plus Nanosyn / Reaction Biology for CDK/cyclin lines)
How it was run: as §1

KIT V560G = biological target: T34, KIT V560G (Homo sapiens, UniProt P10721, V560G)
T34 construct: purchased Thermo Fisher Scientific SelectScreen (plus Nanosyn / Reaction Biology for CDK/cyclin lines)
How it was run: as §1

PHKG1 = biological target: T35, PHKG1 (Homo sapiens, UniProt Q16816)
T35 construct: purchased Thermo Fisher Scientific SelectScreen (plus Nanosyn / Reaction Biology for CDK/cyclin lines)
How it was run: as §1

JAK3 = biological target: T36, JAK3 (Homo sapiens, UniProt P52333)
T36 construct: purchased Thermo Fisher Scientific SelectScreen (plus Nanosyn / Reaction Biology for CDK/cyclin lines)
How it was run: as §1

SGK2 = biological target: T37, SGK2 (Homo sapiens, UniProt Q9HBY8)
T37 construct: purchased Thermo Fisher Scientific SelectScreen (plus Nanosyn / Reaction Biology for CDK/cyclin lines)
T37 sequence (Q9HBY8 whole entry): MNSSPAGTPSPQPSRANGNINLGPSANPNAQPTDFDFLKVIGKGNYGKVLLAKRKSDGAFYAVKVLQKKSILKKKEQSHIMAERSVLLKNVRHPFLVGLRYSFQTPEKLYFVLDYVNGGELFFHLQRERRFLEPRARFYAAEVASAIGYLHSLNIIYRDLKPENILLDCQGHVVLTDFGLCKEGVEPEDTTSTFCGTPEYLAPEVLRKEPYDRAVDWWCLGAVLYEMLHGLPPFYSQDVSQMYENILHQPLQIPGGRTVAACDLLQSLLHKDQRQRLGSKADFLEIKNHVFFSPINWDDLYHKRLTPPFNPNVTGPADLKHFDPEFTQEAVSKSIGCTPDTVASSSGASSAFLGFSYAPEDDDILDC
How it was run: as §1

Question: How did the inhibition at 0.1 µM (AKT3 (PKB gamma)) turn out when NS(=O)(=O)c1ccc(Nc2ncc3cc4n(c3n2)C2(CCCCC2)C(=O)NN4)cc1 [INX-315] was run?
Answer: 6%

Question: What about the inhibition at 0.1 µM [1] of the same compound?
Answer: 5%

Question: And the inhibition at 0.1 µM (PLK1)?
Answer: 4%

Question: What about the inhibition at 0.1 µM (MST1R (RON)) of the same compound?
Answer: 2%

Question: What about the inhibition at 0.1 µM (MARK3) of the same compound?
Answer: 10%

Question: What about the inhibition at 0.1 µM (FGFR3 V555M) of the same compound?
Answer: 21%

Question: And the inhibition at 0.1 µM (SRPK2)?
Answer: 2%

Question: And the inhibition at 0.1 µM (LCK)?
Answer: 19%

Question: And the inhibition at 0.1 µM (MAPK8 (JNK1))?
Answer: 6%

Question: And the inhibition at 0.1 µM (BRSK1 (SAD1))?
Answer: 16%

Question: What about the inhibition at 0.1 µM (EPHB1) of the same compound?
Answer: 19%

Question: What about the inhibition at 0.1 µM (MELK) of the same compound?
Answer: 10%

Question: What about the inhibition at 0.1 µM (NEK9) of the same compound?
Answer: 2%

Question: What about the inhibition at 0.1 µM (CLK2) of the same compound?
Answer: 8%

Question: And the inhibition at 0.1 µM (TEK (TIE2) Y897S)?
Answer: 6%

Question: What about the inhibition at 0.1 µM (STK24 (MST3)) of the same compound?
Answer: 11%

Question: What about the inhibition at 0.1 µM (ABL1 F317I) of the same compound?
Answer: 8%

Question: What about the inhibition at 0.1 µM (ERBB2 (HER2)) of the same compound?
Answer: 0%

Question: And the inhibition at 0.1 µM (PRKCN (PKD3))?
Answer: 13%

Question: And the inhibition at 0.1 µM (MAPK12 (p38 gamma))?
Answer: 9%

Question: And the inhibition at 0.1 µM (FES (FPS))?
Answer: 17%

Question: What about the inhibition at 0.1 µM (PRKCZ (PKC zeta)) of the same compound?
Answer: 10%

Question: And the inhibition at 0.1 µM (KIT)?
Answer: 9%

Question: What about the inhibition at 0.1 µM (AMPK (A2/B1/G3)) of the same compound?
Answer: 17%

Question: And the inhibition at 0.1 µM (CHEK1 (CHK1))?
Answer: 2%

Question: What about the inhibition at 0.1 µM (CSNK1A1 (CK1 alpha 1)) of the same compound?
Answer: 5%

Question: What about the inhibition at 0.1 µM (FYN) of the same compound?
Answer: 4%

Question: And the inhibition at 0.1 µM (HIPK3 (YAK1))?
Answer: 4%

Question: What about the inhibition at 0.1 µM (CLK1) of the same compound?
Answer: 5%

Question: And the inhibition at 0.1 µM (BMX)?
Answer: 22%

Question: And the inhibition at 0.1 µM (EGFR (ErbB1) T790M)?
Answer: 5%

Question: And the inhibition at 0.1 µM (ZAP70)?
Answer: -1%

Question: And the inhibition at 0.1 µM (NEK4)?
Answer: 15%

Question: And the inhibition at 0.1 µM (KIT V560G)?
Answer: 27%

Question: What about the inhibition at 0.1 µM (PHKG1) of the same compound?
Answer: 4%

Question: What about the inhibition at 0.1 µM (JAK3) of the same compound?
Answer: 24%

Question: And the inhibition at 0.1 µM (SGK2)?
Answer: 5%
